Laboratory results as given in ChEMBL document CHEMBL5696442, “Discovery of type II inhibitors of TGFβ-activated kinase 1 (TAK1) and mitogen-activated protein kinase kinase kinase kinase 2 (MAP4K2)” (J Med Chem, 2015).

Legend:
[1] = molecular target: Cyclin-dependent kinase 1 (Homo sapiens) (UniProt P06493); experiment: Inhibition of CDC2 Lys1 labeling site in human Huh-7 cell lysate at 1 uM by KiNativ Profiling analysis relative to control; type: subcellular
[2] = molecular target: Putative phosphatidylinositol 4-kinase alpha-like protein P2 (Homo sapiens) (UniProt A4QPH2); experiment: Inhibition of PI4KAP2 ATP labeling site in human A-375 cells at 0.05 uM by KiNativ Profiling analysis relative to control; type: cell-based
Putative phosphatidylinositol 4-kinase alpha-like protein P2 (Homo sapiens), sequence (A4QPH2 whole entry): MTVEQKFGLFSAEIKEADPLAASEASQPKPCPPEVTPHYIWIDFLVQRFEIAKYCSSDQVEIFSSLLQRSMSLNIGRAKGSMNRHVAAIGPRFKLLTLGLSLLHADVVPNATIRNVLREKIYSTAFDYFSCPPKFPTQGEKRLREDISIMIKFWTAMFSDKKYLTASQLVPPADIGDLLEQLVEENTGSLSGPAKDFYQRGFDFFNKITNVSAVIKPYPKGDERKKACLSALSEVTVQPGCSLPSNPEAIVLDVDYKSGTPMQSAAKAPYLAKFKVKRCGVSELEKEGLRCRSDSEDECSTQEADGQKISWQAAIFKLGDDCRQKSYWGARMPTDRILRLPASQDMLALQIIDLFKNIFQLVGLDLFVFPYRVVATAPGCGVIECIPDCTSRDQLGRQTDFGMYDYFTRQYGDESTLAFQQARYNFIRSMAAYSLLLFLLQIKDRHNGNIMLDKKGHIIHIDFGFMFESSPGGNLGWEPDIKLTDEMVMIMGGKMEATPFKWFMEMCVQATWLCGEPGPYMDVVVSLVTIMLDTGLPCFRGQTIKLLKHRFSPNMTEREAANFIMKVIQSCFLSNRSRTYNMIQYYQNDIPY

[3] = molecular target: T1, Mitogen-activated protein kinase kinase kinase 2 (Homo sapiens) (UniProt Q9Y2U5); experiment: Inhibition of MAP3K2 Lys1 labeling site harbouring ELAVKQVQFDPDSPETSKEVNALECEIQLLK in human A-375 cells at 0.05 uM by KiNativ Profiling analysis relative to control; type: cell-based
T1 sequence (whole entry): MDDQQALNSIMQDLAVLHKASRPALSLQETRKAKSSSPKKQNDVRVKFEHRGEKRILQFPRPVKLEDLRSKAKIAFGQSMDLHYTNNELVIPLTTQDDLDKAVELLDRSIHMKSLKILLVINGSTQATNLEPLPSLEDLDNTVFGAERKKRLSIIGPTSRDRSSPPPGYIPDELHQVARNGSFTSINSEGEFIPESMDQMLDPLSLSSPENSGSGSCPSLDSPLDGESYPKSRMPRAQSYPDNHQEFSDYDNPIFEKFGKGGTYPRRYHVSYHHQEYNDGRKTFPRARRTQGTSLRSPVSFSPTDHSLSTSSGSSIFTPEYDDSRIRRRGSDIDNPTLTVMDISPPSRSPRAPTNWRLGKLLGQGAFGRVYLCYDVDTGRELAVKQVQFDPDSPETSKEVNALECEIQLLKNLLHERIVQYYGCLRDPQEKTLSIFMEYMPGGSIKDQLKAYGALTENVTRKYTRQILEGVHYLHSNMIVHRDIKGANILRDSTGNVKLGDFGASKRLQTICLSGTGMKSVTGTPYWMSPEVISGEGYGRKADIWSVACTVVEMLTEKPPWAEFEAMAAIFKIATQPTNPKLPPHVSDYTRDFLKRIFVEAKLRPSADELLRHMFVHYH

[4] = molecular target: T2, Mitogen-activated protein kinase 13 (Homo sapiens) (UniProt O15264); experiment: Inhibition of p38 delta Lys2 labeling site in human A-375 cells at 5 uM by KiNativ Profiling analysis relative to control; type: cell-based
T2 sequence (whole entry): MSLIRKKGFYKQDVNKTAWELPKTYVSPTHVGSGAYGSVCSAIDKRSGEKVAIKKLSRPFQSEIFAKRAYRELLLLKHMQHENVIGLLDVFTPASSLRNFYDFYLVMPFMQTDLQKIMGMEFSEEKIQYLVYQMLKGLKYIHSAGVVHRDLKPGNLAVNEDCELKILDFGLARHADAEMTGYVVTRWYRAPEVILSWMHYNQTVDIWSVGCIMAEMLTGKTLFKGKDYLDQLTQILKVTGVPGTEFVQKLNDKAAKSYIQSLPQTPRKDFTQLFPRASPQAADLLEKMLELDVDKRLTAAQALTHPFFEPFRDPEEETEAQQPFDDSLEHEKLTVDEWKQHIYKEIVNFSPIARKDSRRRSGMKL

[5] = molecular target: T3, Serine/threonine-protein kinase TBK1 (Homo sapiens) (UniProt Q9UHD2); experiment: Inhibition of TBK1 Lys1 labeling site in human A-375 cells at 5 uM by KiNativ Profiling analysis relative to control; type: cell-based
T3 sequence (whole entry): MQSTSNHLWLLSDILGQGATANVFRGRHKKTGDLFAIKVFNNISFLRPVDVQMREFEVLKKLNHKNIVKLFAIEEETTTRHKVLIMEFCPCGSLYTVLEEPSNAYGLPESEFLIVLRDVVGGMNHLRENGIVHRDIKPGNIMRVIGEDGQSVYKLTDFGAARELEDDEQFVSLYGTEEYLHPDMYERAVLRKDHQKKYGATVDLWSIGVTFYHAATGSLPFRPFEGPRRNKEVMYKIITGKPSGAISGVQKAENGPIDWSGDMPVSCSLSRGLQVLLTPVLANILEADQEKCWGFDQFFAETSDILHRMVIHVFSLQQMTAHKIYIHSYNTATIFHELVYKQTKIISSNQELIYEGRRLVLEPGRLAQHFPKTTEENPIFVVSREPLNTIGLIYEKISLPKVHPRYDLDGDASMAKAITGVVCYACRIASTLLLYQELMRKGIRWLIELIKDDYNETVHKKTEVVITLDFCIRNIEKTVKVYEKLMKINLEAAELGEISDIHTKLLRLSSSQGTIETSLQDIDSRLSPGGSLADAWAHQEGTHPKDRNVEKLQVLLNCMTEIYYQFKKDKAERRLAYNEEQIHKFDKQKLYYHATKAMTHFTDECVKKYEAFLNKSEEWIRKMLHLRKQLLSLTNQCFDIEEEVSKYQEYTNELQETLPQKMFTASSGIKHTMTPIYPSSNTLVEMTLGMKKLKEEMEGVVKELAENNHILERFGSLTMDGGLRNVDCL

[6] = molecular target: Proto-oncogene tyrosine-protein kinase Src (Homo sapiens, UniProt P12931); experiment: Inhibition of SRC Lys1 labeling site in human A-375 cells at 0.5 uM by KiNativ Profiling analysis relative to control; type: cell-based
Proto-oncogene tyrosine-protein kinase Src, sequence (P12931 2-536 limits assumed): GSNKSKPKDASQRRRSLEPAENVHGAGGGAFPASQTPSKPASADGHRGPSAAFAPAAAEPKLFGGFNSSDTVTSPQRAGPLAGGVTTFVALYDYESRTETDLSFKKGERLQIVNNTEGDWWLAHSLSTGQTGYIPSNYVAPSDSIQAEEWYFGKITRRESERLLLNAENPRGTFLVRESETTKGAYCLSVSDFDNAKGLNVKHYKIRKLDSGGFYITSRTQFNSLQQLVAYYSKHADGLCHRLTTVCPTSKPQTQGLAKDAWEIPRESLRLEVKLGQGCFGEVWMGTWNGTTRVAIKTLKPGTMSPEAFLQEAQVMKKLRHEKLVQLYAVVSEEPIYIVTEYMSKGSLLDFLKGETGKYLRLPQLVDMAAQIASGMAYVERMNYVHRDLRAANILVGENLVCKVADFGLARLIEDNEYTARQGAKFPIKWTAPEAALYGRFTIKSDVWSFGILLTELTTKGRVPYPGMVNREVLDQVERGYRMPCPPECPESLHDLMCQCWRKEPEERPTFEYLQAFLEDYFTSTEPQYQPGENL

[7] = molecular target: Tyrosine-protein kinase Yes (Homo sapiens) (UniProt P07947); experiment: Inhibition of YES ACT labeling site in human A-375 cells at 0.05 uM by KiNativ Profiling analysis relative to control; type: cell-based
Tyrosine-protein kinase Yes (Homo sapiens), sequence (P07947 2-543 limits assumed): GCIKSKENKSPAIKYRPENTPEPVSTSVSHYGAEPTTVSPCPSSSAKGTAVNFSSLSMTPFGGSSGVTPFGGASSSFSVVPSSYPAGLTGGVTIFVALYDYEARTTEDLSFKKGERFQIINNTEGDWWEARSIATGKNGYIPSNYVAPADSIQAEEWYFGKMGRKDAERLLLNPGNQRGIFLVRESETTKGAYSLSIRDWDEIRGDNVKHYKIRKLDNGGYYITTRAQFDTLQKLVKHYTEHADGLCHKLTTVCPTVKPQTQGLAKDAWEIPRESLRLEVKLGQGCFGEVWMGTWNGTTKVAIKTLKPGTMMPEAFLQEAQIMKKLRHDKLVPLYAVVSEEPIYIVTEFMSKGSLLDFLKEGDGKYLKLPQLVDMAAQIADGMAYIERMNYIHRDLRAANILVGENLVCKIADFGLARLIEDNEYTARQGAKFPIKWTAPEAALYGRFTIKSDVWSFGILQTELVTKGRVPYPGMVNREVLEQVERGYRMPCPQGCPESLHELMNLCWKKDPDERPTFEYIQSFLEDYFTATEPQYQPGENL

[8] = molecular target: T4, Serine/threonine-protein kinase NLK (Homo sapiens) (UniProt Q9UBE8); experiment: Inhibition of NLK (unknown origin) at 10 uM by Ambit Kinomescan binding assay relative to control; values are per cent of control
T4 sequence (whole entry): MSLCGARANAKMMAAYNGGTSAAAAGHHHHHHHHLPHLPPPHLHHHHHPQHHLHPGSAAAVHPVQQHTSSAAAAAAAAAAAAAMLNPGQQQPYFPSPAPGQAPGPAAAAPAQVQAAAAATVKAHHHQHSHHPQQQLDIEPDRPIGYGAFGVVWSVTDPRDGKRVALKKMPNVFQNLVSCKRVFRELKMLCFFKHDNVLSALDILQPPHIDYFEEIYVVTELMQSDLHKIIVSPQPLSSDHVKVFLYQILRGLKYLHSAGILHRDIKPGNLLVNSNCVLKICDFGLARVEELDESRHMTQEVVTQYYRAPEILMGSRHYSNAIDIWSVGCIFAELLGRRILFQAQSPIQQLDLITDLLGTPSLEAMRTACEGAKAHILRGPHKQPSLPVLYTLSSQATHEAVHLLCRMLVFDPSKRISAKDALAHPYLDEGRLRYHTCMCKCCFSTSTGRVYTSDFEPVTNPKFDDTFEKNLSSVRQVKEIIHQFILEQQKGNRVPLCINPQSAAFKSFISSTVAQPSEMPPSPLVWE

[9] = tested on: 293-IL-1R; experiment: Inhibition of IL-1alpha induced p105 phosphorylation level in human 293-IL-1R cells preincubated for 1 hr followed by IL-1 alpha stimulation and measured after 30 mins by Western blot analysis; type: functional, cell-based; conditions: dose 0.01-10 µM

Cyclin-dependent kinase 1 (Homo sapiens), sequence (P06493 whole entry, looked up): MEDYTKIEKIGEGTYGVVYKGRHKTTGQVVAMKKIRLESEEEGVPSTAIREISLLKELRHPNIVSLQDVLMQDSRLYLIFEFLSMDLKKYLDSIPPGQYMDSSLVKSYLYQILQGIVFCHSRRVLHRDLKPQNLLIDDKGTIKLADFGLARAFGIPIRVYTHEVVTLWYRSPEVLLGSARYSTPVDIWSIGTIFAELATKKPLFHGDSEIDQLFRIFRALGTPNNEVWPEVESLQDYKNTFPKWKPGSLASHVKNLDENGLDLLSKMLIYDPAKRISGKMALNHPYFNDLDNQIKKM

CNc1cc(Oc2cc(C(=O)Nc3cc(N4CCN(C)CC4)cc(C(F)(F)F)c3)ccc2C)ncn1 showed an inhibition [1] of 21.5%.
CCN1CCN(Cc2ccc(NC(=O)c3ccc(C)c(/C=C/c4cnc5[nH]ccc5c4OC)c3)cc2C(F)(F)F)CC1 gave an inhibition [2] of 0.8%, an inhibition [3] of 5.2% and an inhibition [4] of 52.7%. The inhibition [5] was 42.7%, the inhibition [6] was 72.5% and the inhibition [7] was 38.9%.
CCN1CCN(Cc2ccc(NC(=O)c3ccc(C)c(Oc4ccnc5[nH]ccc45)c3)cc2C(F)(F)F)CC1 showed an inhibition [3] of 11.8%, a percent of control [8] of 14% and an inhibition [4] greater than 94%. For the same compound, the inhibition [5] was 13.2%, the inhibition [9] was “Dose-Dependent Effect” and the inhibition [6] was 77.2%.
